# Experimental data taken from US20140039056A1, “BROMFENAC ORGANIC SALTS AND PREPARATION METHOD, COMPOSITION AND USE THEREOF” (SHENYANG XINGQI PHARMACEUTICAL CO., LTD., priority 2010, published 2014).
# Counter-ions that a name gives are not always drawn.
# Key:
# [1] = In vitro transdermal absorption test (diffusion cell, ex vivo rat skin); details: for Accumulative osmolality: ex vivo rat skin, 32° C., n = 3; for Total osmolality of 24 h: 24 h accumulative osmolality x effective area 1.23 cm^2; for transdermal absorption amount relative to bromfenac sodium: in vitro; for Osmotic rate: slope of accumulative osmolality Q against time; for Osmotic percentage: total osmolality of 24 h / mass added to supplying chamber
# Protocol: Preparation of solutions of bromfenac salts: bromfenac sodium, bromfenac diethylamine salt of Example 1, and bromfenac trometamol salt of Example 2 were precisely weighed separately to obtain 0.25 g samples, which were separately placed in 25 ml volumetric flasks, and phosphate buffered solution (pH value was 7.0) was used to reach the metered volume to obtain stock solutions for standby use.
# Chromatography conditions: detector: ultraviolet absorption detector (wavelength: 266 nm). Chromatography column: octadecyl silica column (4.0 mm×150 mm, 5 μm). Mobile phase: precisely weighed ammonium acetate 3.85 g, added with water to the metered volume of 1000 mL. 600 mL of this solution was taken, and added with 250 mL of methanol and 150 mL of tetrahydrofuran. Flow rate: 1.5 mL/min.
# Plotting standard curves: bromfenac sodium, bromfenac diethylamine salt and bromfenac trometamol salt in suitable amounts were precisely weighed separately, dissolved in mobile phase, diluted separately to form test solutions with concentrations of 10, 30, 60, 120, 300, 700 μg/ml, which were separately weighed precisely to take 20 μl and injected into chromatography and separately assayed.
# Transdermal absorption test: ex vivo skins of back and abdomen of 200-260 g rats were taken and used as osmotic membranes, which were fixed with suture on diffusion cells (diffusion cells having a diameter of 1.25 cm, and an effective area of 1.23 cm^2). Stock solutions of bromfenac sodium, bromfenac diethylamine salt and bromfenac trometamol salt in an amount of 2 ml were separately added to supplying chamber, 100 ml of physiological saline was used as receiving solution in receiving cells, kept at a constant temperature of 32° C., stirred (250 r/min). 5 ml samples of receiving solutions were taken precisely with time intervals of 0, 2, 4, 6, 8, 10, 12, 24 hours, filtered, measured according to the above method to determine first-order light spectrum derivative absorption values and calculate contents, and accumulative osmolality Q was calculated according to the following formula;
# In the above formula, c is concentration of receiving solution sample; v1 is volume of sample as taken at every turn; v2 is volume of diffusion cell; A is diffusion area. Diagrams were plotted by using t as abscissa, Q as ordinate to obtain osmosis curves of bromfenac sodium, bromfenac diethylamine salt and bromfenac trometamol salt; linear regression was performed using accumulative osmolality Q against time, the obtained slope K was transdermal osmotic rate; the accumulative osmolality of 24 hours was multiplied by the effective osmotic area (1.23 cm^2) to obtain total osmolality of 24 hours; and the total osmolality of 24 hours was divided by the mass of the added product in the supplying chamber to obtain osmotic percentage.
# [2] = test system: swelling of auricle caused by xylene in mice; experiment: Test of effects on swelling of auricle caused by xylene in mice; assay type: in vivo; details: for effect on swelling of auricle caused by xylene in mice: in words; for Swelling degree: weight difference between two ears, lavage 50 mL/Kg of 1 g/100 ml solution twice per day for 7 days, mice
# Protocol: Test grouping: 40 mice, bodyweight 20±2 g, randomly divided into 4 groups, 10 mice per group, i.e., physiological control group, bromfenac sodium group, bromfenac diethylamine salt group, and bromfenac trometamol salt group.
# Test method: the mice of each test group were administered with physiological saline, solution of bromfenac sodium, solution of bromfenac diethylamine salt and solution of bromfenac trometamol salt, twice per day via lavage in lavage dose of 50 mL/Kg, for consecutive 7 days, 1 h after the last administration, xylene in dose of 0.05 mL/mouse was coated on right ears of mice of each test group, while their left ears were used as control, the mice were executed after 30 min, ear parts that were at the same place and had the same area were cut from both ears by a puncher with a diameter of 6 mm, and weighed with ten thousandth electronic analytical balance, and the weight difference between two ears was used as index of swelling.
# [3] = test system: swelling of foot caused by egg white in rats; experiment: Test of effects on swelling of foot caused by egg white in rats; assay type: in vivo; details: for effect on voix pedis swelling caused by egg white in rats: within 0.5 hours to 6 hours, versus physiological saline control group, in words
# Protocol: Test grouping: 40 rats, bodyweight 200-220 g, randomly divided into 4 groups, 10 rats per group, i.e., physiological saline control group, bromfenac sodium group, bromfenac diethylamine salt group, and bromfenac trometamol salt group.
# The rats of each test group were administered with physiological saline, solution of bromfenac sodium, solution of bromfenac diethylamine salt and solution of bromfenac trometamol salt, twice per day via lavage in lavage dose of 50 mL/Kg, for consecutive 7 days, before the last administration, volumes of voix pedis of normal right and left hindfeet of each rat were measured, and the measurement was performed by blood capillary volume method. The linedrawing position at ankle joint of rat was adjusted so that the volumes of voix pedis of right and left hindfeet were about 1 mL, 0.5 hours after the last administration, 0.1 mL of newly prepared 10% egg white liquid was subcutaneously injected to voix pedis of right and left hindfeet of rats respectively, and the volumes of voix pedis of right and left hindfeet of rats were measured again at 0.5, 1, 2, 4, 6 hours after injection of egg white, and swelling rate was calculated (voix pedis swelling rate=voix pedis volume at different time after injection of egg white−voix pedis volume at the same side before injection of egg white/voix pedis volume at the same side before injection of egg white), and the results were shown in Table 5.
# [4] = Chemical stability in aqueous state (25° C., dark); assay type: physicochemical; details: for degradation products and content changes in aqueous solution: dark conditions, in words
# [5] = 0.5 hours after injection of egg white
# [6] = 0.5 hours after injection of egg white, lavage 50 mL/Kg twice per day for 7 days
# [7] = 1.0 hours after injection of egg white
# [8] = 2.0 hours after injection of egg white
# [9] = 4.0 hours after injection of egg white
# [10] = 6.0 hours after injection of egg white
# [11] = Normal rats (before egg white), lavage 50 mL/Kg twice per day for 7 days
structure (smiles),measurement,setting,value
"Nc1c(CC(=O)O)cccc1C(=O)c1ccc(Br)cc1 [Bromfenac diethylamine salt, bromfenac diethylamine salt]",Accumulative osmolality,[1]; 2 hours,322.8 μg/cm^2
same,Accumulative osmolality,[1]; 4 hours,964.1 μg/cm^2
same,Accumulative osmolality,[1]; 6 hours,1898.6 μg/cm^2
same,Accumulative osmolality,[1]; 8 hours,2721.8 μg/cm^2
same,Accumulative osmolality,[1]; 10 hours,3303.0 μg/cm^2
same,Accumulative osmolality,[1]; 12 hours,4123.6 μg/cm^2
same,Total osmolality of 24 h,[1],10360.0 µg
same,Accumulative osmolality,[1]; 24 hours,8426.7 μg/cm^2
same,transdermal absorption amount relative to bromfenac sodium,[1]; 24 hours,1.85 times
same,Osmotic rate,[1],369.04 μg/cm^2 · h^−1
same,Osmotic percentage,[1],51.80%
same,effect on swelling of auricle caused by xylene in mice,[2],significant inhibition effects
same,Swelling degree,[2],5.37 ± 0.50 mg
same,voix pedis swelling rate,[3]; [5],(0.65 ± 0.08)
same,voix pedis volume,[3]; [6],1.61 ± 0.08 mL
same,voix pedis swelling rate,[3]; [7],(0.58 ± 0.08)
same,voix pedis volume,[3]; [7],1.55 ± 0.09 mL
same,voix pedis swelling rate,[3]; [8],(0.41 ± 0.08)
same,voix pedis volume,[3]; [8],1.38 ± 0.06 mL
same,voix pedis swelling rate,[3]; [9],(0.23 ± 0.05)
same,voix pedis volume,[3]; [9],1.21 ± 0.06 mL
same,voix pedis swelling rate,[3]; [10],(0.08 ± 0.06)
same,voix pedis volume,[3]; [10],1.06 ± 0.08 mL
same,voix pedis swelling rate,[3]; Normal rats,(0.65 ± 0.08)
same,voix pedis volume,[3]; [11],1.61 ± 0.08 mL
same,effect on voix pedis swelling caused by egg white in rats,[3],significantly inhibit
same,"content (HPLC), aqueous state","[4]; 25° C., dark, 1 week",99.5%
same,"content (HPLC), aqueous state","[4]; 25° C., dark, 2 weeks",99.4%
same,"content (HPLC), aqueous state","[4]; 25° C., dark, 3 weeks",99.2%
same,"content (HPLC), aqueous state",[4]; Initial,99.5%
same,degradation products and content changes in aqueous solution,[4],not observed
"Nc1c(CC(=O)[O-])cccc1C(=O)c1ccc(Br)cc1.[Na+] [Bromfenac sodium, 2-amino-3-(4-bromobenzoyl)phenylacetic acid sodium salt sesquialter hydrate, reference compound]",Accumulative osmolality,[1]; 2 hours,45.5 μg/cm^2
same,Accumulative osmolality,[1]; 4 hours,118.5 μg/cm^2
same,Accumulative osmolality,[1]; 6 hours,340.8 μg/cm^2
same,Accumulative osmolality,[1]; 8 hours,708.6 μg/cm^2
same,Accumulative osmolality,[1]; 10 hours,1231.3 μg/cm^2
same,Accumulative osmolality,[1]; 12 hours,2214.5 μg/cm^2
same,Total osmolality of 24 h,[1],5600.0 µg
same,Accumulative osmolality,[1]; 24 hours,4554.1 μg/cm^2
same,Osmotic rate,[1],219.05 μg/cm^2 · h^−1
same,Osmotic percentage,[1],28.0%
same,effect on swelling of auricle caused by xylene in mice,[2],significant inhibition effects
same,Swelling degree,[2],5.45 ± 0.36 mg
same,voix pedis swelling rate,[3]; [5],(0.58 ± 0.06)
same,voix pedis volume,[3]; [6],1.56 ± 0.11 mL
same,voix pedis swelling rate,[3]; [7],(0.53 ± 0.07)
same,voix pedis volume,[3]; [7],1.51 ± 0.10 mL
same,voix pedis swelling rate,[3]; [8],(0.40 ± 0.09)
same,voix pedis volume,[3]; [8],1.39 ± 0.11 mL
same,voix pedis swelling rate,[3]; [9],(0.22 ± 0.08)
same,voix pedis volume,[3]; [9],1.20 ± 0.10 mL
same,voix pedis swelling rate,[3]; [10],(0.06 ± 0.05)
same,voix pedis volume,[3]; [10],1.04 ± 0.06 mL
same,voix pedis swelling rate,[3]; Normal rats,(0.58 ± 0.06)
same,voix pedis volume,[3]; [11],1.51 ± 0.11 mL
same,effect on voix pedis swelling caused by egg white in rats,[3],significantly inhibit
same,"content (HPLC), aqueous state","[4]; 25° C., dark, 1 week",99.5%
same,"content (HPLC), aqueous state","[4]; 25° C., dark, 2 weeks",99.4%
same,"content (HPLC), aqueous state","[4]; 25° C., dark, 3 weeks",99.1%
same,"content (HPLC), aqueous state",[4]; Initial,99.6%
same,degradation products and content changes in aqueous solution,[4],not observed
"Nc1c(CC(=O)O)cccc1C(=O)c1ccc(Br)cc1 [Bromfenac trometamol salt, bromfenac trometamol salt]",Accumulative osmolality,[1]; 2 hours,277.2 μg/cm^2
same,Accumulative osmolality,[1]; 4 hours,632.5 μg/cm^2
same,Accumulative osmolality,[1]; 6 hours,1268.3 μg/cm^2
same,Accumulative osmolality,[1]; 8 hours,2089.6 μg/cm^2
same,Accumulative osmolality,[1]; 10 hours,2736.1 μg/cm^2
same,Accumulative osmolality,[1]; 12 hours,3085.7 μg/cm^2
same,Total osmolality of 24 h,[1],9010.0 µg
same,Accumulative osmolality,[1]; 24 hours,7326.9 μg/cm^2
same,transdermal absorption amount relative to bromfenac sodium,[1]; 24 hours,1.61 times
same,Osmotic rate,[1],320.61 μg/cm^2 · h^−1
same,Osmotic percentage,[1],45.05%
same,effect on swelling of auricle caused by xylene in mice,[2],significant inhibition effects
same,Swelling degree,[2],5.41 ± 0.47 mg
same,voix pedis swelling rate,[3]; [5],(0.63 ± 0.09)
same,voix pedis volume,[3]; [6],1.59 ± 0.09 mL
same,voix pedis swelling rate,[3]; [7],(0.57 ± 0.10)
same,voix pedis volume,[3]; [7],1.54 ± 0.11 mL
same,voix pedis swelling rate,[3]; [8],(0.44 ± 0.13)
same,voix pedis volume,[3]; [8],1.41 ± 0.13 mL
same,voix pedis swelling rate,[3]; [9],(0.20 ± 0.10)
same,voix pedis volume,[3]; [9],1.24 ± 0.10 mL
same,voix pedis swelling rate,[3]; [10],(0.10 ± 0.07)
same,voix pedis volume,[3]; [10],1.08 ± 0.08 mL
same,voix pedis swelling rate,[3]; Normal rats,(0.63 ± 0.09)
same,voix pedis volume,[3]; [11],1.59 ± 0.09 mL
same,effect on voix pedis swelling caused by egg white in rats,[3],significantly inhibit
same,"content (HPLC), aqueous state","[4]; 25° C., dark, 2 weeks",99.3%
same,"content (HPLC), aqueous state","[4]; 25° C., dark, 3 weeks",99.1%
same,degradation products and content changes in aqueous solution,[4],not observed
